From PubChem BioAssay (NCI)
Several values for one entry are separate records, joined by “and”; a condition that tells them apart may be missing. Identical values can stand only once.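 Five compound concentrations were applied to cells in 96-well plates for 48 hours; endpoints were derived by simple linear interpolation of the resulting dose-response curve. Here, GI50 denotes the concentration required for 50% inhibition of growth. TGI marks complete inhibition of growth.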

Experiments:
Assay in all cases: NCI tumour cell line growth inhibition, 48 h
MDA-MB-231 breast = tested on: MDA-MB-231 breast
UO-31 renal = tested on: UO-31 renal
SK-MEL-2 melanoma = tested on: SK-MEL-2 melanoma
EKVX NSCLC = tested on: EKVX NSCLC
U251 CNS = tested on: U251 CNS
NCI-H460 lung = tested on: NCI-H460 lung
SK-MEL-28 melanoma = tested on: SK-MEL-28 melanoma
HS 578T breast = tested on: HS 578T breast
NCI-H522 lung = tested on: NCI-H522 lung
LOX IMVI melanoma = tested on: LOX IMVI melanoma

Compound	TGI (MDA-MB-231 breast)	TGI (UO-31 renal)	TGI (SK-MEL-2 melanoma)	TGI (EKVX NSCLC)	TGI (U251 CNS)	TGI (NCI-H460 lung)	TGI (SK-MEL-28 melanoma)	TGI (HS 578T breast)	TGI (NCI-H522 lung)	TGI (LOX IMVI melanoma)	GI50 (MDA-MB-231 breast) [µM]	GI50 (UO-31 renal)	GI50 (SK-MEL-2 melanoma) [µM]	GI50 (EKVX NSCLC)	GI50 (U251 CNS)	GI50 (NCI-H460 lung)	GI50 (SK-MEL-28 melanoma)	GI50 (HS 578T breast) [µM]	GI50 (NCI-H522 lung) [µM]	GI50 (LOX IMVI melanoma)
COC(=O)c1cccc(COc2ccc([N+](=O)[O-])cc2Cl)c1	> 100 µM	> 100 µM	> 100 µM	> 100 µM	> 100 µM	> 100 µM	> 100 µM	> 100 µM	> 100 µM	> 100 µM	–	–	–	–	–	–	–	–	–	–
COc1ccc2nc3c(cc2c1)C(=O)CC(C(F)(F)F)C3 (centres undefined)	> 100 µM	> 100 µM	> 100 µM	> 100 µM	> 100 µM	> 100 µM	> 100 µM	> 100 µM	> 100 µM	> 100 µM	2.34	1.36 µM	0.847	4.46 µM	5.82 µM	1.87 µM	1.26 µM	2.19	0.49	3.54 µM
N[C@@H](Cc1ccc(N(CCCl)CCCl)cc1)C(=O)O	> 100 µM and 134 µM	65.2 µM and 81.2 µM and 123 µM	33.5 µM and 112 µM	> 100 µM and 58.3 µM and 128 µM	> 100 µM and 31.7 µM and 121 µM	> 100 µM and 29.2 µM and 103 µM	> 100 µM and 73.5 µM and 165 µM	> 100 µM and 165 µM	29.5 µM and 66.8 µM	> 100 µM and 57.2 µM and 96.3 µM	> 100	12.9 µM and 29.6 µM	17.4	51.3 µM and 37.5 µM and 52 µM	16.1 µM and 11.9 µM	3.01 µM and 3.78 µM	68.2 µM and 27.3 µM	–	14.4	6.5 µM and 11.9 µM
NC(CSC(c1ccccc1)(c1ccccc1)c1ccc(Br)cc1)C(=O)O (centres undefined)	3.92 µM	> 100 µM	> 78.2 µM	> 100 µM	25.5 µM	18.1 µM	31.7 µM	0.219 µM	22.3 µM	19.8 µM	0.133	12.3 µM	14.5	0.707 µM	0.0798 µM	0.175 µM	0.366 µM	0.0621	0.12	0.659 µM
NC1=C(O)/C(=N/NS(=O)(=O)c2ccccc2)C(c2cccc(Cl)c2)O1 (centres undefined)	37.6 µM	33.5 µM	66 µM	> 100 µM	55.7 µM	> 100 µM	46.2 µM	95.1 µM	26.4 µM	49.2 µM	–	–	–	–	–	–	–	–	–	–
O=c1c(Br)ccc(Br)cc1Br	3.68 µM	2.95 µM	5.85 µM	3.39 µM	3.34 µM	11.5 µM	5.83 µM	23.1 µM	0.364 µM	2.35 µM	1.99	1.51 µM	2.39	1.71 µM	1.84 µM	4.88 µM	2.55 µM	3.44	0.17	0.897 µM
Nc1c2c(c(O)c3c1=C(CO)C=N3)=NCCS2=O (centres undefined)	9.69 µM	3.5 µM	3.8 µM	7.51 µM	3.26 µM	2.31 µM	–	7.9 µM	3.3 µM	4.03 µM	2.82	1.68 µM	1.45	2.51 µM	1.78 µM	0.649 µM	–	2.78	1.37	1.58 µM
O=P1(NCCCl)OCCC(OO)N1CCCl (centres undefined)	> 100 µM	> 100 µM	> 100 µM	> 100 µM	> 100 µM	> 100 µM	39.4 µM	> 100 µM	25.6 µM	37.5 µM	–	–	–	–	–	–	–	–	–	–
COc1ccc(-n2cc(-c3ccc(F)cc3)[nH]c2=O)cc1OC	> 100 µM	> 100 µM	> 100 µM	> 100 µM	> 100 µM	> 100 µM	> 100 µM	> 100 µM	> 100 µM	> 100 µM	> 100	> 100 µM	> 100	> 100 µM	> 100 µM	> 100 µM	> 100 µM	98.9	> 100	> 100 µM
Cc1cccc(C)c1NC(=O)/C(CC(=O)CC(c1ccccc1)c1c(O)c2ccccc2oc1=O)=N/O (centres undefined)	> 100 µM	> 100 µM	> 100 µM	> 100 µM	> 100 µM	> 100 µM	> 100 µM	> 100 µM	> 100 µM	> 100 µM	–	–	–	–	–	–	–	–	–	–
COc1ccccc1NC(=O)C(=O)C(C#N)CC(C)(C)C=O (centres undefined)	> 100 µM	> 100 µM	> 100 µM	> 100 µM	> 100 µM	> 100 µM	> 100 µM	> 100 µM	> 100 µM	> 100 µM	–	–	–	–	–	–	–	–	–	–
COc1cc(-c2nc3cc(Cl)c(Cl)cc3[nH]2)ccc1OCC(=O)N=Nc1c(O)[nH]c2ccccc12	1.69 µM	> 100 µM	3.27 µM	21.7 µM	0.681 µM	1.63 µM	2.68 µM	4.05 µM	2.18 µM	0.368 µM	0.45	> 52.6 µM	1.33	2.02 µM	0.244 µM	0.42 µM	1.38 µM	1.21	0.301	0.192 µM
COc1cc2c(cc1OC)-c1c(c3ccc([N+](=O)[O-])cc3c(=O)n1CCCBr)C2=O	> 100 µM	> 100 µM	> 100 µM	> 100 µM	> 100 µM	> 100 µM	> 100 µM	> 100 µM	> 100 µM	42.4 µM	96.4	5.23 µM	> 100	> 100 µM	5.14 µM	0.573 µM	> 100 µM	> 100	6.41	3.9 µM
CC(=O)O[C@H]1CC[C@@]2(C)[C@@H](CC[C@@H]3[C@@H]2CC(=O)[C@@]2(C)[C@H]3C[C@@H]3CC(C)=CC(=O)[C@@H]32)C1	> 100 µM	> 100 µM	> 100 µM	> 100 µM	> 100 µM	–	> 100 µM	80.3 µM	> 100 µM	> 100 µM	–	–	–	–	–	–	–	–	–	–
C/C(=N\O)c1ccc(Nc2cc(-c3ccccc3)nc3c(O)cccc23)cc1	11.8 µM	33.7 µM	36.8 µM	> 100 µM	38.6 µM	–	32.3 µM	62.4 µM	33.3 µM	24 µM	2.46	14.8 µM	17.3	18.9 µM	11.8 µM	–	14.5 µM	15.9	16.7	6.71 µM
